Data taken from the supplement of paper PMC10307832.

Legend:
Experiment in all cases: relative viability (nuclei count vs DMSO), 5 days (fraction); higher = more cells survive
[1] = compound: COc1cc2nccc(Oc3ccc(NC(=O)C4(C(=O)Nc5ccc(F)cc5)CC4)cc3)c2cc1OC [Cabozantinib] + N=C(N)NC(=N)NCCc1ccccc1 [Phenformin] (partner 250 µM)
Procedure, shortened: (§1)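 Relative viability divides the nuclei count in treated wells by that in vehicle wells. Lung cancer cell lines were seeded in 1536-well plates, dosed by pin tool the next day, and fixed and stained after 5 days in one step with final 0.05% Triton X-100, 1% formaldehyde and 1 ug/ml Hoechst. Dosing was a single drug or a fixed anchor-drug dose plus five library-drug doses (not always all listed) in √10 steps, and values are medians of duplicate plates imaged at 4×.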

[2] = compound: COc1cc2nccc(Oc3ccc(NC(=O)C4(C(=O)Nc5ccc(F)cc5)CC4)cc3)c2cc1OC [Cabozantinib] + Nc1nc2[nH]cc(CCc3ccc(C(=O)N[C@@H](CCC(=O)O)C(=O)O)cc3)c2c(=O)[nH]1 [Pemetrexed] (partner 0.2 µM)
Procedure, shortened: as §1

[3] = compound: C1=CC(=CC=C1NC(=S)NNC2=C(C=C(C=C2[N+](=O)[O-])C(F)(F)F)[N+](=O)[O-])F [Kobe2602] + O=C(c1cc(Cc2n[nH]c(=O)c3ccccc23)ccc1F)N1CCN(C(=O)C2CC2)CC1 [Olaparib] (partner 8 µM)
Procedure, shortened: as §1

[4] = compound: COc1cc2nccc(Oc3ccc(NC(=O)C4(C(=O)Nc5ccc(F)cc5)CC4)cc3)c2cc1OC [Cabozantinib] + O=C(c1cc(Cc2n[nH]c(=O)c3ccccc23)ccc1F)N1CCN(C(=O)C2CC2)CC1 [Olaparib] (partner 8 µM)
Procedure, shortened: as §1

Cell Line	relative viability ([1]; first compound 0.02 µM)	relative viability ([1]; first compound 0.06325 µM)	relative viability ([1]; first compound 0.2 µM)	relative viability ([1]; first compound 0.6325 µM)	relative viability ([1]; first compound 2 µM)	relative viability ([2]; first compound 0.02 µM)	relative viability ([2]; first compound 0.06325 µM)	relative viability ([2]; first compound 0.2 µM)	relative viability ([2]; first compound 0.6325 µM)	relative viability ([2]; first compound 2 µM)	relative viability ([3]; first compound 0.2 µM)	relative viability ([3]; first compound 0.6325 µM)	relative viability ([3]; first compound 2 µM)	relative viability ([3]; first compound 6.325 µM)	relative viability ([3]; first compound 20 µM)	relative viability ([4]; first compound 0.02 µM)	relative viability ([4]; first compound 0.06325 µM)	relative viability ([4]; first compound 0.2 µM)	relative viability ([4]; first compound 0.6325 µM)	relative viability ([4]; first compound 2 µM)
NCI-H2342	0.538	0.785	0.552	0.633	0.545	0.711	0.828	0.83	0.86	0.729	0.415	0.406	0.435	0.493	0.434	0.436	0.454	0.746	0.495	0.379
NCI-H1623	0.545	0.667	0.526	0.519	0.585															
LCLC-97TM1	0.229	0.461	0.5	0.431	0.45	0.155	0.179	0.181	0.17	0.17	0.365	0.416		0.437	0.383	0.483	0.492	0.332	0.342	0.407
NCI-H2087	0.422	0.455	0.471	0.429	0.456	0.612	0.711	0.614	0.752	0.665	0.564	0.696	0.705	0.639	0.637	0.702	0.643	0.622	0.523	0.605
NCI-H647	0.488	0.596	0.541	0.49	0.322	0.165	0.192	0.162	0.149	0.133	0.511	0.39	0.55	0.606	0.618	0.715	0.656	0.523	0.537	0.51
Calu-6											0.581	0.589	0.606	0.631	0.514	0.595	0.662	0.613	0.539	0.517
LCLC-103H	0.296	0.354	0.27	0.371	0.306	0.45	0.451	0.459	0.527	0.465	0.775	0.793	0.804	0.762	0.764	0.77	0.796	0.779	0.79	0.729
HCC-15	0.366	0.532	0.512	0.478	0.491	0.231	0.228	0.226	0.223	0.215	0.691	0.727	0.609	0.742	0.837	0.745	0.755	0.73	0.719	0.692
H3255	0.331	0.393		0.346	0.37	0.52	0.646		0.57	0.575	0.561	0.562	0.515	0.532	0.559	0.583	0.613		0.599	0.611
NCI-H1915	0.364	0.389	0.374	0.373	0.362	0.532	0.51	0.507	0.505	0.459	0.275	0.251	0.246	0.269	0.307	0.296	0.28	0.283	0.239	0.255
NCI-H1650	0.434	0.556	0.395	0.43	0.376	0.441	0.435	0.337	0.355	0.374	0.844	0.891	0.819	0.868	0.8	0.831	0.958	0.713	0.753	0.809
NCI-H661	0.273	0.252	0.283	0.335	0.286	0.959	0.941	0.981	0.939	1.07	0.714	0.695	0.697	0.754	0.802	0.786	0.79	0.779	0.875	0.825
NCI-H2126	0.443	0.555	0.539	0.544	0.586	0.59	0.666	0.689	0.658	0.704	0.868	0.892	0.905	0.929	0.926	0.937	0.932	0.865	0.938	0.946
NCI-H727	0.447	0.617	0.477	0.495	0.528						0.748	0.678	0.847		0.736	0.769	0.828	0.632	0.907	0.606
NCI-H1648						0.73	0.908		0.793	0.82	0.62	0.929	0.493	0.772	0.872	1.17	0.995		1.02	0.651
NCI-H1703											0.454	0.364	0.4	0.483	0.431	0.398	0.232	0.224	0.215	0.149
EBC-1											0.687	0.684	0.69	0.647	0.759	0.748	0.452	0.16	0.136	0.123
NCI-H1563	0.601	0.668	0.658	0.702	0.709	0.645	0.869	0.984	0.684	0.802										
IA-LM											0.851	0.718	0.773	0.894	0.862	0.817	0.849	0.801	1.06	0.925
ABC-1	0.244	0.276	0.235	0.28	0.218						0.639	0.623	0.747	0.773	0.775		0.786	0.939	0.598	0.816
